Read-outs that look alike come from different tables or passages of the source.
What was measured:
Experiment in all cases: microbe, parasite or virus in culture
Type in all cases: cell-based
HIV-1YU-2 = test system: HIV-1YU-2
[1] = test system: amphotropic murine leukemia virus (AMLV); conditions: for IC50: specificity control
HIV-1JR-CSF = test system: HIV-1JR-CSF
HIV-1HxBc2 = conditions: Human immunodeficiency virus 1, read-out: IC50 HxBc2
[2] = Human immunodeficiency virus 1, read-out: IC50 YU-2, single round infection assay
[3] = Murine leukemia virus, read-out: IC50 AMLV, Table 2 screening results
[4] = read-out: IC50 YU-2, single round infection assay
[5] = read-out: IC50 AMLV, Table 2 screening results
[6] = Human immunodeficiency virus 1, read-out: IC50 JR-CSF
[7] = read-out: IC50 JR-CSF, single round infection assay

O=C(c1ccccn1)N1CCN(S(=O)(=O)c2ccc3ccccc3c2)CC1 [Compound 1]
IC50 (HIV-1YU-2; [2]): > 300 µM | IC50 [1, 3]: > 300 µM

O=C(CCC(=O)N1CCN(C(=O)c2ccccc2)CC1)c1ccc(Cl)s1 [Compound 2]
IC50 (HIV-1YU-2; [2]): > 300 µM | IC50 [1, 3]: > 300 µM

O=C(c1ccccn1)N1CCN(S(=O)(=O)c2ccc3c(c2)OCCO3)CC1 [Compound 3]
IC50 (HIV-1YU-2; [2]): > 300 µM | IC50 [1, 3]: > 300 µM

O=C(c1ccccc1)N1CCN(S(=O)(=O)c2ccc(Cl)c(C(F)(F)F)c2)CC1 [Compound 4]
IC50 (HIV-1YU-2; [2]): > 300 µM | IC50 [1, 3]: > 300 µM

CCc1cc(C(=O)N2CCN(C(=O)c3ccccc3)CC2)sc1C [Compound 5]
IC50 (HIV-1YU-2; [2]): > 300 µM | IC50 [1, 3]: > 300 µM

O=C(COc1cccc(Br)c1)N1CCN(C(=O)c2ccccc2)CC1 [Compound 6]
IC50 (HIV-1YU-2; [2]): > 300 µM | IC50 [1, 3]: > 300 µM

O=C1CSc2ccc(C(=O)N3CCN(C(=O)c4cccs4)CC3)cc2N1 [Compound 7]
IC50 (HIV-1YU-2; [2]): > 300 µM | IC50 [1, 3]: > 300 µM

O=C(c1ccccc1)N1CCN(C(=O)c2ccc3c(c2)CCC3)CC1 [Compound 8]
IC50 (HIV-1YU-2; [2]): > 300 µM | IC50 [1, 3]: > 300 µM

Cc1ccc2nc(C)c(C(=O)N3CCN(C(=O)c4ccccc4)CC3)cc2c1 [Compound 9]
IC50 (HIV-1YU-2; [2]): > 300 µM | IC50 [1, 3]: > 300 µM

Cc1cccc(C(=O)N2CCN(S(=O)(=O)c3ccc(C)c(C)c3)CC2)c1 [Compound 10]
IC50 (HIV-1YU-2; [2]): > 300 µM | IC50 [1, 3]: > 300 µM

O=C(c1ccccc1)N1CCN(C(=O)c2ccc3c4c(cccc24)CC3)CC1 [Compound 11]
IC50 (HIV-1YU-2; [4]): 15.7 µM | IC50 [1, 3]: > 300 µM

O=C(COc1cccc2ccccc12)N1CCN(C(=O)c2ccccc2)CC1 [Compound 12]
IC50 (HIV-1YU-2; [2]): 53.3 ± 3.7 µM | IC50 [1, 3]: > 300 µM

O=C(c1ccccc1)N1CCN(S(=O)(=O)c2ccc3c(c2)CCCC3)CC1 [Compound 13]
IC50 (HIV-1YU-2; [2]): 117 µM | IC50 [1, 3]: 197 µM

O=C(c1cc(-c2ccc(Cl)cc2)on1)N1CCN(S(=O)(=O)c2ccccc2F)CC1 [Compound 14]
IC50 (HIV-1YU-2; [2]): > 300 µM | IC50 [1, 3]: > 300 µM

COc1ccc(Br)cc1C=CC(=O)N1CCC(C(=O)c2ccccc2)CC1 [Compound 15]
IC50 (HIV-1YU-2; [2]): 156 µM | IC50 [1, 3]: 210 µM

O=C(c1ccccc1)N1CCN(C(=O)c2csc(-c3ccccc3)n2)CC1 [Compound 16]
IC50 (HIV-1YU-2; [2]): > 300 µM | IC50 [1, 3]: > 300 µM

Cc1nc2ccc(Cl)cc2cc1C(=O)N1CCN(S(=O)(=O)c2ccccc2)CC1 [Compound 17]
IC50 (HIV-1YU-2; [2]): 193 µM | IC50 [1, 3]: 238 µM

Cc1ccc(C(C)C)c(OCC(=O)N2CCN(C(=O)c3ccccc3)CC2)c1 [Compound 18]
IC50 (HIV-1YU-2; [4]): > 300 µM | IC50 [1, 5]: > 300 µM

O=C(C1=Cc2cc(Br)ccc2OC1)N1CCN(C(=O)c2ccccc2)CC1 [Compound 19]
IC50 (HIV-1YU-2; [2]): > 300 µM | IC50 [1, 3]: > 300 µM

Cc1nn(-c2ccccc2)c(C)c1C(=O)C(=O)N1CCN(C(=O)c2ccccc2)CC1 [Compound 20]
IC50 (HIV-1YU-2; [4]): > 300 µM | IC50 [1, 5]: > 300 µM

Cc1c(C)c(C)c(S(=O)(=O)N2CCN(C(=O)c3cccnc3O)CC2)c(C)c1C [Compound 21]
IC50 (HIV-1YU-2; [2]): > 300 µM | IC50 [1, 3]: > 300 µM

CCc1ccc(C(=O)N2CCN(C(=O)c3cc4cc(C)ccc4nc3C)CC2)cc1 [Compound 22]
IC50 (HIV-1YU-2; [2]): > 300 µM | IC50 [1, 3]: > 300 µM

O=C(c1cnccn1)N1CCN(C(=O)c2cc3ccccc3cc2O)CC1 [Compound 24]
IC50 (HIV-1YU-2; [2]): > 300 µM | IC50 [1, 3]: > 300 µM

CC(C(=O)N1CCCc2ccccc21)N1CCN(C(=O)c2ccccc2)CC1 (stereo not shown) [Compound 25]
IC50 (HIV-1YU-2; [2]): > 50 µM | IC50 [1, 3]: > 50 µM

O=C(COc1ncnc2sc(-c3ccccc3)cc12)N1CCN(C(=O)c2ccco2)CC1 [Compound 26]
IC50 (HIV-1YU-2; [2]): > 50 µM | IC50 [1, 3]: > 50 µM

O=C(c1ccccc1)N1CCN(C(=O)c2cc(-c3ccncc3)nc3ccccc23)CC1 [Compound 27]
IC50 (HIV-1YU-2; [2]): > 50 µM | IC50 [1, 3]: > 50 µM

O=C(CSc1ncnc2sccc12)N1CCN(C(=O)c2cccs2)CC1 [Compound 28]
IC50 (HIV-1YU-2; [2]): 1.6 ± 0.4 µM | IC50 [1, 3]: > 50 µM

O=C(c1ccccc1)N1CCN(C(=O)c2ccc(N3CCOCC3)c([N+](=O)[O-])c2)CC1 [Compound 29]
IC50 (HIV-1YU-2; [2]): > 50 µM | IC50 [1, 3]: > 50 µM

O=C(CSc1nnnn1C1CCCC1)N1CCN(C(=O)c2cccs2)CC1 [Compound 30]
IC50 (HIV-1YU-2; [2]): > 50 µM | IC50 [1, 3]: > 50 µM

CCOC(=O)N1CCN(C(=O)C(=O)c2c(C)[nH]c3ccccc23)CC1 [Compound 31]
IC50 (HIV-1YU-2; [2]): > 50 µM | IC50 [1, 3]: > 50 µM

O=C(Cc1cccc2ccccc12)N1CCN(C(=O)c2ccco2)CC1 [Compound 32]
IC50 (HIV-1YU-2; [2]): 22.8 µM | IC50 [1, 3]: > 50 µM

O=C(COc1cccc2ccccc12)N1CCN(C(=O)c2ccccc2F)CC1 [Compound 33]
IC50 (HIV-1YU-2; [2]): > 50 µM | IC50 [1, 3]: > 50 µM

Cc1cc(C)nc(SCC(=O)N2CCN(C(=O)c3ccccc3)CC2)n1 [Compound 34]
IC50 (HIV-1YU-2; [2]): 19.4 µM | IC50 [1, 3]: > 50 µM

Cc1cnc2c(S(=O)(=O)N3CCN(C(=O)c4ccc(C)s4)CC3)cccc2c1 [Compound 35]
IC50 (HIV-1YU-2; [2]): > 50 µM | IC50 [1, 3]: > 50 µM

Cc1nn(-c2ccccc2)c(C)c1C(=O)C(=O)N1CCN(C(=O)c2ccccc2)CC1 [Compound 36]
IC50 (HIV-1YU-2; [4]): > 50 µM | IC50 [1, 5]: > 50 µM

CC(C)n1ncc2c(C(=O)N3CCN(C(=O)c4ccccc4)CC3)cc(-c3ccco3)nc21 [Compound 37]
IC50 (HIV-1YU-2; [2]): > 50 µM | IC50 [1, 3]: > 50 µM

Cc1nn(C)c2nc(-c3cccs3)cc(C(=O)N3CCN(C(=O)c4ccccc4)CC3)c12 [Compound 38]
IC50 (HIV-1YU-2; [2]): > 50 µM | IC50 [1, 3]: > 50 µM

O=C(c1ccco1)N1CCN(C(O)COc2ccc(Cl)cc2[N+](=O)[O-])CC1 (stereo not shown) [Compound 39]
IC50 (HIV-1YU-2; [2]): > 50 µM | IC50 [1, 3]: > 50 µM

Cc1[nH]c2ccccc2c1C(=O)C(=O)N1CCC(C(=O)c2ccc(O)cc2)CC1 [Compound 40]
IC50 (HIV-1YU-2; [2]): > 50 µM | IC50 [1, 3]: > 50 µM

O=C(CSC1=Nc2ccccc2CS1)N1CCN(C(=O)c2cccs2)CC1 [Compound 41]
IC50 (HIV-1YU-2; [2]): > 50 µM | IC50 [1, 3]: > 50 µM

COc1ccc(O)cc1NCC(=O)N1CCN(S(=O)(=O)c2ccc3c(c2)CCC3)CC1 [Compound 42]
IC50 (HIV-1YU-2; [2]): > 50 µM | IC50 [1, 3]: > 50 µM

COc1ccc(Cl)cc1C(=O)Cn1c(=O)oc2cc(S(=O)(=O)N3CCOCC3)ccc21 [Compound 43]
IC50 (HIV-1YU-2; [2]): > 50 µM | IC50 [1, 3]: > 50 µM

COc1ccc(OC)c(CCC(=O)N2CCN(C(=O)c3cccc(OC(F)F)c3)CC2)c1 [Compound 44]
IC50 (HIV-1YU-2; [2]): > 50 µM | IC50 [1, 3]: > 50 µM

COc1ccc(OC)c(/C=C/C(=O)N2CCN(C(=O)C3CC3)CC2)c1 [Compound 45]
IC50 (HIV-1YU-2; [2]): > 50 µM | IC50 [1, 3]: > 50 µM

O=C(c1ccccc1)N1CCN(C(=O)c2ccc3noc(-c4ccccc4)c3c2)CC1 [Compound 46]
IC50 (HIV-1YU-2; [2]): > 50 µM | IC50 [1, 3]: > 50 µM

COc1cccc(C(=O)N2CCN(C(=O)COc3cccc4ccccc34)CC2)c1 [Compound 47]
IC50 (HIV-1YU-2; [2]): > 50 µM | IC50 [1, 3]: > 50 µM

CCN(CC)S(=O)(=O)N1CCN(C(=O)C(=O)c2c(C)[nH]c3ccccc23)CC1 [Compound 48]
IC50 (HIV-1YU-2; [2]): > 50 µM | IC50 [1, 3]: > 50 µM

Cc1ccc(C(C)C)c(OCC(=O)N2CCN(C(=O)c3ccccc3)CC2)c1 [Compound 49]
IC50 (HIV-1YU-2; [4]): > 50 µM | IC50 [1, 5]: > 50 µM

COc1ccc(C(=O)N2CCN(C(=O)COc3cccc4ccccc34)CC2)cc1 [Compound 50]
IC50 (HIV-1YU-2; [2]): > 50 µM | IC50 [1, 3]: > 50 µM

O=C(c1ccccc1)N1CCN(C(=O)c2ccc3c4c(cccc24)CC3)CC1 [SC03, (4-benzoylpiperazin-1-yl)(1,2-dihydroacenaphthylen-5-yl)methanone]
IC50 (HIV-1YU-2; [2]): 13.1 ± 1.7 µM | IC50 (HIV-1JR-CSF; [6]): 0.42 ± 0.28 µM

O=C(c1ccccc1)N1CC2CN(C(=O)c3ccc4c5c(cccc35)CC4)CC2C1 (stereo not shown) [SC04, (5-benzoylhexahydropyrrolo[3,4-c]pyrrol-2(1H)-yl)(1,2-dihydroacenaphthylen-5-yl)methanone]
IC50 (HIV-1YU-2; [2]): 70 ± 6 µM | IC50 (HIV-1JR-CSF; [7]): 100 ± 30 µM

COc1ncc(OC)c2c(C(=O)C(=O)N3CC4CCC(c5ccccc5)C4C3)c[nH]c12 (stereo not shown) [SC10, 1-(4,7-dimethoxy-1H-pyrrolo[2,3-c]pyridin-3-yl)-2-(4-phenylhexahydrocyclopenta[c]pyrrol-2(1H)-yl)ethane-1,2-dione]
IC50 (HIV-1JR-CSF; [6]): 0.42 ± 0.11 µM | IC50 (HIV-1HxBc2): 4.81 ± 4.1 µM

COc1cnc(-n2cnc(C)n2)c2[nH]cc(C(=O)C(=O)N3CC4CN(C(=O)c5ccccc5)CC4C3)c12 (stereo not shown) [SC11, 1-(5-benzoylhexahydropyrrolo[3,4-c]pyrrol-2(1H)-yl)-2-(4-methoxy-7-(3-methyl-1H-1,2,4-triazol-1-yl)-1H-pyrrolo[2,3-c]pyridin-3-yl)ethane-1,2-dione]
specificity to HIV-1 (inhibition of AMLV-pseudotyped HIV-1) ([1]; single round infection assay, in words): retaining HIV-1 specificity | IC50 (HIV-1JR-CSF; [7]): 0.0008 ± 0.0004 µM

COc1cnc(-n2cnc(C)n2)c2[nH]cc(C(=O)C(=O)N3CC4C=NN(c5cccc(C)n5)C4C3)c12 (stereo not shown) [SC24, 1-(4-methoxy-7-(3-methyl-1H-1,2,4-triazol-1-yl)-1H-pyrrolo[2,3-c]pyridin-3-yl)-2-(1-(6-methylpyridin-2-yl)-3a,4,6,6a-tetrahydropyrrolo[3,4-c]pyrazol-5(1H)-yl)ethane-1,2-dione]
IC50 (HIV-1JR-CSF; [6]): 0.7 ± 0.4 µM

O=C(C(=O)N1CC2C=NN(c3ccccc3)C2C1)c1c[nH]c2c(-n3ccnn3)ncc(F)c12 (stereo not shown) [SC38, 1-(4-fluoro-7-(1H-1,2,3-triazol-1-yl)-1H-pyrrolo[2,3-c]pyridin-3-yl)-2-(1-phenyl-3a,4,6,6a-tetrahydropyrrolo[3,4-c]pyrazol-5(1H)-yl)ethane-1,2-dione]
IC50 (HIV-1HxBc2): 0.008 ± 0.003 µM

Cc1ncn(-c2ncc(F)c3c(C(=O)C(=O)N4CC5C=NN(c6nnnn6-c6ccccc6)C5C4)c[nH]c23)n1 (stereo not shown) [SC39, 1-(4-fluoro-7-(3-methyl-1H-1,2,4-triazol-1-yl)-1H-pyrrolo[2,3-c]pyridin-3-yl)-2-(1-(1-phenyl-1H-tetrazol-5-yl)-3a,4,6,6a-tetrahydropyrrolo[3,4-c]pyrazol-5(1H)-yl)ethane-1,2-dione]
IC50 (HIV-1HxBc2): 35.3 ± 9.3 µM

— patent publication US9920073B2, “Compositions useful for inhibiting HIV-1 infection and methods using same” (Drexel University, priority 2013, dated 2018)
